The term LOAEL denotes the lowest dose or exposure tested at which an adverse effect was seen. By NOAEL is commonly meant the highest dose or exposure tested at which no adverse effect was seen.

The data set deals with Rattus norvegicus. Conditions: oral, gavage.
Setting [1] is: chronic, duration: 110 days, M, Sprague-Dawley, Reproductive: Decreased serum testosterone (44%).
[2] abbreviates: developmental, duration: 47 days, M/F, Sprague-Dawley, Body Weight: Decreased body weight gain (20-30%) + Developmental: Decreases in pup body weight (only one litter had live pups) + Endocrine: ….
Where [3] appears, read: short-term, duration: 14 days, M, Sprague-Dawley, Body Weight: 25% reduction in final body weight + Reproductive: Decreased serum testosterone (38%) and estradiol (~38%), and ultrastructural….
Where [4] appears, read: short-term, duration: 28 days, F, Sprague-Dawley, Endocrine: 40% reduced serum estradiol in pubertal females.
[5] abbreviates: subchronic, duration: 47 days, F, Sprague-Dawley, Hepatic: Single cell necrosis in females / hepatocellular hypertrophy in males and females at […] / bile duct proliferation at […] in ….

In the case of `O=C(O)C(F)(F)C(F)(F)C(F)(F)C(F)(F)C(F)(F)C(F)(F)C(F)(F)C(F)(F)C(F)(F)C(F)(F)C(F)(F)F` [Perfluorododecanoic acid], the LOAEL (acute, duration: 1 days, M, Wistar, Body Weight: 44% decrease in body weight gain (measured 10-days post-exposure) + Neurological: Impaired performance on novel object …) was 50 mg/kg-day; the lowest observed adverse effect level (LOAEL) under setting [1] turned out to be 0.2 mg/kg-day; the lowest observed adverse effect level (LOAEL) under setting [2] was determined as 2.5 mg/kg-day; the LOAEL under setting [3] was 5 mg/kg-day; the lowest-observed-adverse-effect level (LOAEL) under setting [4] is 3 mg/kg-day; the LOAEL (subchronic, duration: 47 days, F, Sprague-Dawley, Death: 58% mortality) came out at 2.5 mg/kg-day. The lowest-observed-adverse-effect level (LOAEL) under setting [5] came to 2.5 mg/kg-day. Further, the no-observed-adverse-effect level (NOAEL) is, setting by setting: (acute, duration: 1 days, M, Wistar, Neurological: No alterations in open field activity + Neurological: No alterations in tests of working memory or depressive behavior) 50 mg/kg-day; (chronic, duration: 110 days, M, Sprague-Dawley) 0.5 mg/kg-day; under setting [1], 0.05 mg/kg-day; under setting [2], 0.5 mg/kg-day; under setting [3], 1 mg/kg-day; (short-term, duration: 14 days, M, Sprague-Dawley, Hepatic: 35% increase in total serum cholesterol at 10 mg/kg/day) 10 mg/kg-day. In addition, the no-observed-adverse-effect level (NOAEL) worked out at 10 mg/kg-day (short-term, duration: 14 days, M, Sprague-Dawley, Hepatic: Increased liver weight, increased hepatic triglyceride and cholesterol levels at ?5 mg/kg/day / increased serum triglyceride …); 1 mg/kg-day under setting [4]; 0.5 mg/kg-day under setting [5]; 2.5 mg/kg-day (subchronic, duration: 47 days, M/F, Sprague-Dawley).

(Values after EPA's ToxValDB 9.5.)
